Laboratory results: ChEMBL document CHEMBL3885881, “DrugMatrix”

Species: Rattus norvegicus
Assay: DrugMatrix - Regimen: Daily Repeat
Type: toxicity, organism-based, Sprague-Dawley
Design: regimen Daily Repeat, gender Male, age 6-8 weeks
Details: in vivo, po, 300 mg/kg, route oral GAVAGE, dose level Low, vehicle .5 % CMC; for ABSOLUTE BASOPHIL / ABSOLUTE EOSINOPHIL / ABSOLUTE LYMPHOCYTE / ABSOLUTE MONOCYTE / ABSOLUTE SEGMENTED NEUTROPHIL / BASOPHIL / EOSINOPHIL / ERYTHROCYTE COUNT / HEMATOCRIT / HEMOGLOBIN / LEUKOCYTE COUNT / LYMPHOCYTE / MEAN CORPUSCULAR HEMOGLOBIN / MEAN CORPUSCULAR HEMOGLOBIN CONCENTRATION / MEAN CORPUSCULAR VOLUME / MONOCYTE / NEUTROPHIL / NUCLEATED RED BLOOD CELLS / PLATELET COUNT: tissue Blood; for ALANINE AMINOTRANSFERASE / ALBUMIN / ALKALINE PHOSPHATASE / ASPARTATE AMINOTRANSFERASE / BLOOD UREA NITROGEN / CARBON DIOXIDE / CHLORIDE / CHOLESTEROL / CREATINE PHOSPHOKINASE / CREATININE / GLUCOSE / LACTATE DEHYDROGENASE / LIPASE / PHOSPHORUS / POTASSIUM / SODIUM / TOTAL BILIRUBIN / TOTAL PROTEIN / URIC ACID: tissue Plasma

Compound: CC1(C)S[C@@H]2[C@H](NC(=O)[C@H](N)c3ccccc3)C(=O)N2[C@H]1C(=O)O [AMPICILLIN]
- ABSOLUTE BASOPHIL (72 h, time 3 day): 0 CELLS/uL
- ABSOLUTE EOSINOPHIL (72 h, time 3 day): 0 CELLS/uL
- ABSOLUTE LYMPHOCYTE (72 h, time 3 day): 16747 CELLS/uL
- ABSOLUTE MONOCYTE (72 h, time 3 day): 205.33 CELLS/uL
- ABSOLUTE SEGMENTED NEUTROPHIL (72 h, time 3 day): 2214.33 CELLS/uL
- BASOPHIL (72 h, time 3 day): 0%
- EOSINOPHIL (72 h, time 3 day): 0%
- ERYTHROCYTE COUNT (72 h, time 3 day): 5.53 x10E6/uL
- HEMATOCRIT (72 h, time 3 day): 34.2%
- HEMOGLOBIN (72 h, time 3 day): 13.4 G/DL
- LEUKOCYTE COUNT (72 h, time 3 day): 19.17 x10E3/uL
- LYMPHOCYTE (72 h, time 3 day): 87.33%
- MEAN CORPUSCULAR HEMOGLOBIN (72 h, time 3 day): 24.23 pg
- MEAN CORPUSCULAR HEMOGLOBIN CONCENTRATION (72 h, time 3 day): 39.17 G/DL
- MEAN CORPUSCULAR VOLUME (72 h, time 3 day): 61.9 fL
- MONOCYTE (72 h, time 3 day): 1%
- NEUTROPHIL (72 h, time 3 day): 11.67%
- NUCLEATED RED BLOOD CELLS (72 h, time 3 day): 0 /100WBC
- PLATELET COUNT (72 h, time 3 day): 1348.33 x10E3/uL
- ALANINE AMINOTRANSFERASE (72 h, time 3 day): 47.67 u/L
- ALBUMIN (72 h, time 3 day): 4.03 G/DL
- ALKALINE PHOSPHATASE (72 h, time 3 day): 258.67 u/L
- ASPARTATE AMINOTRANSFERASE (72 h, time 3 day): 88 u/L
- BLOOD UREA NITROGEN (72 h, time 3 day): 17.67 mg/dL
- CARBON DIOXIDE (72 h, time 3 day): 25.67 mmol/L
- CHLORIDE (72 h, time 3 day): 101.33 MEQ/L
- CHOLESTEROL (72 h, time 3 day): 82.67 mg/dL
- CREATINE PHOSPHOKINASE (72 h, time 3 day): 507.67 u/L
- CREATININE (72 h, time 3 day): 0.28 mg/dL
- GLUCOSE (72 h, time 3 day): 170 mg/dL
- LACTATE DEHYDROGENASE (72 h, time 3 day): 299.67 u/L
- LIPASE (72 h, time 3 day): 9.33 u/L
- PHOSPHORUS (72 h, time 3 day): 11.7 mg/dL
- POTASSIUM (72 h, time 3 day): 6.51 MEQ/L
- SODIUM (72 h, time 3 day): 143.9 MEQ/L
- TOTAL BILIRUBIN (72 h, time 3 day): 0.17 mg/dL
- TOTAL PROTEIN (72 h, time 3 day): 5.87 G/DL
- URIC ACID (72 h, time 3 day): 2.2 mg/dL
- ABSOLUTE BASOPHIL (120 h, time 5 day): 0 CELLS/uL
- ABSOLUTE EOSINOPHIL (120 h, time 5 day): 67.33 CELLS/uL
- ABSOLUTE LYMPHOCYTE (120 h, time 5 day): 16228 CELLS/uL
- ABSOLUTE MONOCYTE (120 h, time 5 day): 111.33 CELLS/uL
- ABSOLUTE SEGMENTED NEUTROPHIL (120 h, time 5 day): 1460 CELLS/uL
- BASOPHIL (120 h, time 5 day): 0%
- EOSINOPHIL (120 h, time 5 day): 0.33%
- ERYTHROCYTE COUNT (120 h, time 5 day): 5.55 x10E6/uL
- HEMATOCRIT (120 h, time 5 day): 34.3%
- HEMOGLOBIN (120 h, time 5 day): 13.4 G/DL
- LEUKOCYTE COUNT (120 h, time 5 day): 17.87 x10E3/uL
- LYMPHOCYTE (120 h, time 5 day): 91%
- MEAN CORPUSCULAR HEMOGLOBIN (120 h, time 5 day): 24.2 pg
- MEAN CORPUSCULAR HEMOGLOBIN CONCENTRATION (120 h, time 5 day): 39.1 G/DL
- MEAN CORPUSCULAR VOLUME (120 h, time 5 day): 61.93 fL
- MONOCYTE (120 h, time 5 day): 0.67%
- NEUTROPHIL (120 h, time 5 day): 8%
- NUCLEATED RED BLOOD CELLS (120 h, time 5 day): 0 /100WBC
- PLATELET COUNT (120 h, time 5 day): 1271.67 x10E3/uL
- ALANINE AMINOTRANSFERASE (120 h, time 5 day): 58.33 u/L
- ALBUMIN (120 h, time 5 day): 4.17 G/DL
- ALKALINE PHOSPHATASE (120 h, time 5 day): 353 u/L
- ASPARTATE AMINOTRANSFERASE (120 h, time 5 day): 84.33 u/L
- BLOOD UREA NITROGEN (120 h, time 5 day): 16 mg/dL
- CARBON DIOXIDE (120 h, time 5 day): 25.67 mmol/L
- CHLORIDE (120 h, time 5 day): 103.33 MEQ/L
- CHOLESTEROL (120 h, time 5 day): 80.33 mg/dL
- CREATINE PHOSPHOKINASE (120 h, time 5 day): 323.67 u/L
- CREATININE (120 h, time 5 day): 0.22 mg/dL
- GLUCOSE (120 h, time 5 day): 150.33 mg/dL
- LACTATE DEHYDROGENASE (120 h, time 5 day): 269.33 u/L
- LIPASE (120 h, time 5 day): 10 u/L
- PHOSPHORUS (120 h, time 5 day): 13 mg/dL
- POTASSIUM (120 h, time 5 day): 6.3 MEQ/L
- SODIUM (120 h, time 5 day): 143.7 MEQ/L
- TOTAL BILIRUBIN (120 h, time 5 day): 0.13 mg/dL
- TOTAL PROTEIN (120 h, time 5 day): 5.9 G/DL
- URIC ACID (120 h, time 5 day): 1.67 mg/dL
